Results: patent publication US5614562A, “Method of treating drug resistant tumor cells using organoselenones” (The University of Sourthern California, priority 1992, dated 1997)
≈ marks a conversion by molar mass, not a printed value. Where two headings read alike, the source gives them in different places.

Legend:
[1] = methanol, 35° C.; cited from earlier work
L1210/L-PAM [2] = conditions: L1210/L-PAM line; cited from earlier work
L1210/0 [3] = conditions: cited from earlier work
HCT/VM46 = experiment: In vitro cytotoxicity, VM26 resistant HCT/VM46 human colon carcinoma; type: cell-based; conditions: for IC50: Homo sapiens; for ratio of IC50 values HCT/VM46 vs HCT116: IC50 divided by IC50 for HCT116
Source text: | HCT/VM46 human colon, VM26 resistant

HCT/VP35 = experiment: In vitro cytotoxicity, VP16 resistant HCT/VP35 human colon carcinoma; type: cell-based; conditions: for IC50: Homo sapiens, HCT/VP35; for ratio of IC50 values HCT/VP35 vs HCT116: IC50 divided by IC50 for HCT116
Source text: | HCT/VP35 human colon, VP16 resistant

L1210/L-PAM [4] = experiment: Cytotoxicity, 48-hr exposure of L-PAM resistant L1210/L-PAM leukemia cells; type: cell-based, murine; conditions: 48-hr exposure; for IC50: read-out: IC50 L1210/L-PAM
Source text: (§1) Murine L1210 leukemia cells sensitive (L1210/0) and resistant (L1210/L-PAM)to L-phenylalanine mustard were obtained that are adaptable to either in vitro or in vivo passage.
(§2) Broad resistance of the L1210/L-PAM cell line is shown by the approximately 4-fold and 9-fold increases in IC50, compared to L1210/0, for L-PAM and mechlorethamine, respectively (Comparative Examples 3 and 4). […].

L1210/0 [5] = experiment: Cytotoxicity, 48-hr exposure of L1210/0 leukemia cells; type: cell-based, murine; conditions: 48-hr exposure, read-out: IC50 L1210/0
Source text: as §1, §2

HCT116 = experiment: In vitro cytotoxicity, HCT116 human colon carcinoma; type: cell-based; conditions: data provided by Bristol-Myers Laboratories; for IC50: Homo sapiens, HCT-116
Source text: ^b Cell lines: HCT116 human colon (sensitive to VP16 and VM26)

[6] = type: physicochemical
[7] = Swain-Scott product competition of sulfur nucleophiles vs NBP (second-order rate constant ratios); type: physicochemical; conditions: S2O3^2- vs NBP, 37° C., 10 h, 52% aqueous acetone, mean ± S.D.
Source text: (§3) The properties of nucleophilicity and electivity can be quantitatively expressed as n and s constants in the Swain-Scott linear free energy relationship. It has been shown that s and n constants of biological alkylating agents and nucleophiles, respectively, can be readily determined with high precision, using 4-(4-nitrobenzyl)pyridine (NBP) as a competitive substrate for alkyl product formation (Spears, C. P. Mol. Pharmacl.19:496-504,1981; Barbin,A.,Bereziat, A., O'Neill, I. K., and Bartsch, H. Chem.-Biol. Interact,73:261-277, 1990; Kang, S. I., and Spears,C. P. J. Med. Chem. 33:1544-1547, 1990). Broad-spectrum antitumor alkylating agents show uniformly high s constants Spears, C. P. Mol.Pharmacol. 19:496-504, 1981; in contrast, mutagenically efficient alkylating agents show low values (Peterson,A. R., Landolph, J. R., Peterson, H., Spears, C. P., and Heidelberger, C. Cancer Res. 41:3095-3099, 1981; Barbin, A., and Bartsch, H. Mut. Res.215:95-106, 1989).
(§4) FIG. 1 is a Swain-Scott plot of the ratio of second-order rate constants, log (ky /knbp) for several model sulfur, nitrogen, and oxygen nucleophiles in their reactions with 2-chloroethyl 4-methoxy-phenyl selenone ("CEMOS"), vs. their published nucleophilicity nCH3 Br constants. Values of n were taken to be 2.72 for acetate (AcO--), 3.3 for ascorbate, 3.6 for pyridine, 4.0 for azide (N3), 3.94 for nitrite, 5.1 for thiol (SH), 6.18 for sulfite (SO3^2-), 6.36 for thiosulfate (S2 O3^2-), and 6.6 for thiophosphate (HPSO3^2-) (derived from the Ogston "Competition Factor") (Ogston, A. G., Holiday, E. R., Philpot, J. S. L., and Stocken, L. A. Trans.Faraday Soc. 44:45-52, 1948).
Extrapolation of Eq. A predicts that the log (ky /knbp) values for the thiol nucleophiles should have ranged from 3 to 5. However, the measured ratios of second-order rate constants were approximately 100-fold lower than this expectation. Also, the linear regression relationship, Eq. B (FIG. 1), for correlation of log (ky /knbp) values vs. nCH3 Br constants gave a sulfur nucleophile selectivity constant, s, equal to 0.84, approximately one-half of the value for reaction with nitrogen and oxygen nucleophiles:
(§5) ^a By competition between S2 O3^2- and NBP log(kS
(§6) /knbp) or N3^- and NBP log(kN /knbp ) at
(§7) 37° C. and 10 h, in 52% aqueous acetone, using initial
(§8) concentrations of 0.0435 mM and 0.0217 mM of 2chloroethyl phenyl selenone
(§9) and nornitrogen mustard, respectively, as described. Values, experimental

[8] = test system: HT29 human colon carcinoma cells; experiment: Growth inhibition cytotoxicity against HT29 human colon carcinoma cells (MER(+)); type: cell-based; conditions: HT-29
Source text: (Example 15) These cells are very high in the alkyltransferase enzyme for repair of DNA guanine O6-alkyl products, and therefore are considered strongly MER(+) in phenotype. Levels of this enzyme in HT29 cells have averaged about 0.5 pmol/mg protein in recent studies (K. Chan, et al., unpublished). […] Thus, the lack of cross-resistance to ethyleneimines by the present invention of 2-chloroethyl aryl selenones is not associated with resistence mediated by the alkyltransferase repair enzyme.

[9] = test system: P388 murine leukemia ascites cells; experiment: In vivo growth inhibition of P388 leukemia ascites in mice; design: species or system murine; BDF1 mice
Description: In FIG. 2 and Table II are shown the results of in vivo antitumor testing of 2-chloroethyl aryl selenones against murine P388 Leukemia ascites cells.
Examples 5-8 consisted of the use of 2-chloroethyl 4-methoxy-phenyl selenone to treat the mice. Examples 9-12 were the same as example 5 except 2-chloroethyl phenyl selenone was employed.
(§10) The maximally tolerated duration of the highest dose shown in FIG. 2 and Table II, 6 mg/kg/day i.p. of 2-chloroethyl phenyl selenone, was 10 days in a separate experiment. In the experiments shown, i.p. drug was administered for 5 consecutive days, Days 1-5, beginning the day after tumor inoculation (on Day 0).
Mice were inoculated i.p. with 1×10^6 cells of P388 murine leukemia ascites passaged in BDF1 mice, in a volume of 0.1 ml. The selenones were formulated in normal (0.9%, w/v) NaCl for an injection volume of 0.3 ml. Control mice (12 in each group) received i.p. saline alone comparative examples 1 and 2. For each dose level and drug, 6 mice per group were used.
The plateauing of weight increase, at Days 8-9, is consistent with classical Gompertizian tumor growth kinetics (Laird, A. K. Brit. J. Cancer 18:490-502, 1964). The delays observed in the time period before the onset of the exponential phase of weight increase are given in Table II, defined as the Growth Delay.
^a Calculated from Day at which weight first exceeded baseline (Day 0

[10] = Acute intraperitoneal toxicity / maximally tolerated dose in mice; type: in vivo; conditions: 6 mg/kg/day i.p., separate experiment
Description: as §10

[11] = Swain-Scott product competition of nitrogen and oxygen nucleophiles vs NBP (second-order rate constant ratios); type: physicochemical; conditions: N3^- vs NBP, 37° C., 10 h, 52% aqueous acetone, mean ± S.D.
Source text: as §3, §4
The slope of the linear regression equation through the 5 nitrogen and oxygen nucleophiles gives a Swain-Scott selectivity constant, s, equal to 1.79, by Eq. A, shown in FIG. 1:
as §5, §6, §7, §8, §9

[12] = test system: 7 different human colon carcinoma cell lines; conditions: read-out: average IC50, NCI in vitro screen; cited from earlier work
[13] = VM26 resistant, data provided by Bristol-Myers Laboratories
[14] = VP16 resistant, data provided by Bristol-Myers Laboratories

C[Se](=O)(=O)c1ccccc1 [PhSeO2 CH3]
reactivity in methylation of dimethylsulfide [1]: three times as reactive as methyl iodide

O=P1(N(CCCl)CCCl)NCCCO1 (centres unmarked) [cyclophosphamide]
in vivo resistance (log cell kill differential) (L1210/L-PAM [2]): > 2 log
sensitivity of parent L1210/0 line (L1210/0 [3]): sensitive

S=P(N1CC1)(N1CC1)N1CC1 [thioTEPA]
in vivo resistance (log cell kill differential) (L1210/L-PAM [2]): 4 log
sensitivity of parent L1210/0 line (L1210/0 [3]): sensitive

2,6Bis(3-methanesulfonylpropylseleno)lutidine [Lutidine Derivative]
IC50 HCT/VM46 (HCT/VM46; [13]): > 15.6 µg/mL
IC50 HCT/VP35 (HCT/VP35; [14]): > 15.6 µg/mL
Ratio of IC50s (L1210/L-PAM vs L1210/0) (L1210/L-PAM [4]): 2.3
IC50 (L1210/L-PAM [4]): 28 µM
IC50 (L1210/0 [5]): 12 µM
IC50 HCT116 (HCT116): > 15.6 µg/mL

(CH3)2 NCSeCH2 CH2 Cl
Ratio of IC50s (L1210/L-PAM vs L1210/0) (L1210/L-PAM [4]): 1.7
IC50 (L1210/L-PAM [4]): 30 µM
IC50 (L1210/0 [5]): 18 µM

COc1cc([C@@H]2c3cc4c(cc3[C@@H](O[C@@H]3O[C@@H]5CO[C@@H](c6cccs6)O[C@H]5[C@H](O)[C@H]3O)[C@H]3COC(=O)[C@H]23)OCO4)cc(OC)c1O [VM-26 (Teniposide), Teniposide]
IC50 (HCT/VM46; [13]): 0.17 µg/mL (≈ 0.259 µM)
ratio of IC50 values HCT/VM46 vs HCT116 (HCT/VM46): 4.9
fold increase in IC50, HCT/VM46 (HCT/VM46; vs HCT116): 4.9 fold
IC50 (HCT/VP35; [14]): 0.53 µg/mL (≈ 0.807 µM)
ratio of IC50 values HCT/VP35 vs HCT116 (HCT/VP35): 15.1
fold increase in IC50, HCT/VP35 (HCT/VP35; vs HCT116): 15.1 fold
IC50 (HCT116): 0.035 µg/mL (≈ 0.0533 µM)

O=[Se](=O)(CCCl)c1ccccc1 [2-chloroethyl phenyl selenone]
IC50 (HCT/VM46; [13]): 0.44 µg/mL (≈ 1.75 µM)
ratio of IC50 values HCT/VM46 vs HCT116 (HCT/VM46): 0.4
AA (alkylating activity, absorption at 560 nm) ([6]; alkalinized alkyl-NBP, mean ± S.D.): 0.75 ± 0.004
alkylating activity relative to mechlorethamine HCl ([6]; mechlorethamine HCl = 100%): 140%
alkylating activity, percent of nor-nitrogen mustard ([6]; relative to nor-nitrogen mustard): 170%
log(kS/knbp) [7]: 1.77 ± 0.05
log(kS/knbp) ([7]; listed as SKI-273): 1.77±0.05
IC50 (HCT/VP35; [14]): 0.82 µg/mL (≈ 3.26 µM)
ratio of IC50 values HCT/VP35 vs HCT116 (HCT/VP35): 0.8
IC50 [8]: 2.8 µM
Ratio of IC50s (L1210/L-PAM vs L1210/0) (L1210/L-PAM [4]): 0.9
IC50 (L1210/L-PAM [4]; Mus musculus, L1210/LPAM): 0.51 µM
Growth delay ([9]; 1.0 mg/kg daily i.p., Days 1-5 (total 5 mg/kg), Ex. 6, Ex. 9): 4 days
inhibition of tumor growth by the lowest dose tested ([9]; 1 mg/kg/d i.p.): inhibition of tumor growth
Growth delay ([9]; 2.0 mg/kg daily i.p., Days 1-5 (total 10 mg/kg), Ex. 7, Ex. 10): 7 days
Growth delay ([9]; 4.0 mg/kg daily i.p., Days 1-5 (total 20 mg/kg), Ex. 8, Ex. 11): 8 days
Growth delay ([9]; 6 mg/kg daily i.p., Days 1-5 (total 30 mg/kg), Ex. 12): 11 days
IC50 (L1210/0 [5]; Mus musculus, L1210/0): 0.55 µM
IC50 (HCT116): 1.02 µg/mL (≈ 4.05 µM)
maximally tolerated duration [10]: 10 days
log(kN/knbp) [11]: 1.95 ± 0.11
log(kN/knbp) ([11]; listed as SKI-273): 1.95±0.11
IC50 [12]: 2.3 ± 1.6 µM

CS(=O)(=O)OCCCCOS(C)(=O)=O [Busulfan]
Ratio of IC50s (L1210/L-PAM vs L1210/0) (L1210/L-PAM [4]): 1.1
IC50 (L1210/L-PAM [4]; Mus musculus, L1210/LPAM): 60 µM
IC50 (L1210/0 [5]; Mus musculus, L1210/0): 55 µM
